Laboratory results taken from patent US12390537B2, “Compositions of polymeric microdevices and methods of use thereof in cancer immunotherapy” (Massachusetts Institute of Technology, priority 2020, dated 2025).

How the values were obtained:
IRF7 mRNA = experiment: qPCR of interferon-stimulated genes in B16F10 tumors; assay type: in vivo, mice; settings: tumors at day 16; cGAMP-MPs single injection, cGAMP-S three injections
Method: (§1) Mice bearing B16F10 tumors were treated with the following 4 experimental groups (n=8): untreated, 1×EPs, 3×cGAMP-S, and 1×cGAMP-S plus cGAMP-MPs, respectively (FIG. 4A). Tumors were collected at day 16 post tumor inoculation and cut into 50-100 mg small pieces in a 1.5 mL microcentrifuge tube. The tumors were lysed in radioimmunoprecipitation assay (RIPA) buffer (Sigma-Aldrich), homogenized, and centrifuged at 20130 rcf for 10 min. The protein content in the supernatant was quantified using a bicinchoninic acid protein assay kit (Thermo Fisher Scientific, MA, USA). Equal amounts of proteins (20 μg) were separated on a 4 to 15% gradient SDS-polyacrylamide gel (Bio-Rad, Hercules, CA) and electro-transferred to nitrocellulose membrane. The membranes were then blocked with 5% milk in tris-buffered saline supplemented with 0.05% Tween 20 and further incubated with GAPDH monoclonal antibody (Invitrogen, CA, cat. no. MA5-27912), phospho-TBK1/NAK (Ser172) (D52C2) Rabbit mAb (Cell Signaling Technology, cat. no. 5483S), or phospho-IRF-3 (S396) Rabbit mAb (Cell Signaling Technology, cat. no. 4947S) at 4° C. overnight. […]
(§2) For q-PCR experiments, total RNAs were extracted from tumors by RNeasy Kit (Qiagen, Inc.) according to manufacturer's protocol. […] Samples were analyzed in triplicates.

CXCL10 mRNA = experiment: as above; assay type: in vivo, mice; settings: tumors at day 16; cGAMP-MPs single injection, cGAMP-S three injections
Method: as §1, §2

interleukin-6 (IL-6) = experiment: Systemic IL-6 response of orthotopic 4T1 tumor-bearing mice; assay type: in vivo; settings: day 1 to 7; cGAMP-MPs single injection, cGAMP-S four injections
[1] = tested on: KPC pancreatic cancer cells; experiment: Treatment of orthotopic pancreatic tumor model; assay type: in vivo, mice; settings: 25 days; cGAMP-MPs three doses at days 0, 4, 8; cGAMP-S single high dose (30 μg) with EPs
Method: A small incision was made to exteriorize the spleen and pancreas of C57BL/6 female mice. 5×10^5 KPC cells in 50 μL of PBS and Matrigel (1:1 mixture by volume) were injected into the tail of the pancreas. cGAMP-MPs (10 μg of cGAMP-S, 5 PLGA-1 microdevices containing 10 μg of cGAMP and 5 PLGA-2 microdevices containing 10 μg of cGAMP) or 1×cGAMP-S plus EPs (30m of cGAMP-S, 5 each of empty PLGA-1 and PLGA-2 microdevices) in 50 μL MC solution were also injected into the tail of the pancreas. The wound was then closed by an autoclip wound clip system. Mice were euthanized 25 days after tumor inoculation. The tumors were isolated and weighted by a balance. Metastasis to lungs was evaluated by H&E staining of lung sections.

B16F10 melanoma tumors = experiment: Treatment of B16F10 melanoma tumors; assay type: in vivo, mice; settings: single injection of high-dose cGAMP-S (40 μg) and EP
Method: 2×10^5 4 T1 or 2×10^5 B16F10 cells were subcutaneously injected to the right rear flank of BALB/c mice or C57BL/6 female mice respectively. For orthotopic 4T1 model, 2×10^5 4 T1 cells were injected into the mammary fat pad. Seven days after tumor injection, B16F10 tumor-bearing mice were divided into 6 experimental groups (n=8 for each group): untreated, 1×empty microdevices(EP), 1×cGAMP-S plus EPs, 1×collagen gel, 4×cGAMP-S, and 1×cGAMP-S plus cGAMP-MPs, respectively (FIG. 3D). For the 4×cGAMP-S group, mice were intratumorally administered with 10 μg of cGAMP in 50 μL MC solution (cGAMP-S) at days 0, 4, 8, and 11 to replicate the four doses of soluble cGAMP. The overall does of cGAMP were 40 μg per mouse throughout the treatment period. […] Tumor size was measured every other day starting at day 7 post tumor inoculation with a digital caliper. Tumor volume was calculated using the following formula: length (mm)×width^2 (mm)×0.5. […]
Mice bearing B16F10 tumors were treated with the following 4 experimental groups (n=8): untreated, 1×EPs, 3×cGAMP-S, and 1×cGAMP-S plus cGAMP-MPs, respectively (FIG. 4A). […] The protein content in the supernatant was quantified using a bicinchoninic acid protein assay kit (Thermo Fisher Scientific, MA, USA). […]

[2] = tested on: phosphorylated-TBK1 (p-TBK1); experiment: Western blot of B16F10 tumors; assay type: in vivo, mice; settings: tumors at day 16; cGAMP-MPs single injection, cGAMP-S three injections
Method: (§3) Mice bearing B16F10 tumors were treated with the following 4 experimental groups (n=8): untreated, 1×EPs, 3×cGAMP-S, and 1×cGAMP-S plus cGAMP-MPs, respectively (FIG. 4A). Tumors were collected at day 16 post tumor inoculation and cut into 50-100 mg small pieces in a 1.5 mL microcentrifuge tube. The tumors were lysed in radioimmunoprecipitation assay (RIPA) buffer (Sigma-Aldrich), homogenized, and centrifuged at 20130 rcf for 10 min. The protein content in the supernatant was quantified using a bicinchoninic acid protein assay kit (Thermo Fisher Scientific, MA, USA). Equal amounts of proteins (20 μg) were separated on a 4 to 15% gradient SDS-polyacrylamide gel (Bio-Rad, Hercules, CA) and electro-transferred to nitrocellulose membrane. The membranes were then blocked with 5% milk in tris-buffered saline supplemented with 0.05% Tween 20 and further incubated with GAPDH monoclonal antibody (Invitrogen, CA, cat. no. MA5-27912), phospho-TBK1/NAK (Ser172) (D52C2) Rabbit mAb (Cell Signaling Technology, cat. no. 5483S), or phospho-IRF-3 (S396) Rabbit mAb (Cell Signaling Technology, cat. no. 4947S) at 4° C. overnight. The membranes were then incubated with goat anti-rabbit IgG (H+L) Secondary Antibody, HRP (Invitrogen, cat. no. TG266717) for 1 h at room temperature. Protein bands were visualized by chemiluminescence using the ECL Western Blotting Substrate (Thermo Fisher Scientific, MA).

[3] = tested on: phosphorylated-IRF3 (p-IRF3); experiment: Western blot of B16F10 tumors; assay type: in vivo, mice; settings: tumors at day 16; cGAMP-MPs single injection, cGAMP-S three injections
Method: as §3

For `Nc1nc2c(ncn2[C@@H]2O[C@@H]3COP(=O)(O)O[C@H]4[C@@H](O)[C@H](n5cnc6c(N)ncnc65)O[C@@H]4COP(=O)(O)O[C@H]3[C@H]2O)c(=O)[nH]1` [cGAMP-S, 3′3′-cGAMP], the “IRF7 mRNA level, fold over untreated” value (IRF7 mRNA) was 66.5 fold, the “CXCL10 mRNA level, fold over untreated” value (CXCL10 mRNA) was 7.2 fold and the “systemic IL-6 levels” value (interleukin-6 (IL-6)) was “elevated”. For the same compound, the metastasis to lungs [1] was “did not show benefits”, the “primary tumor growth in the pancreas” value [1] was “did not show benefits” and the tumor growth (B16F10 melanoma tumors) was “exhibited an antitumor effect at early time points but failed to achieve sustained tumor inhibition”. The survival time (B16F10 melanoma tumors; untreated 21 days) was 25 days, the “expression of p-TBK1” value [2] was “high expression levels” and the “expression of p-IRF3” value [3] was “high expression levels”.
